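Five compound concentrations were applied to cells in 96-well plates for 48 hours; endpoints were derived by simple linear interpolation of the resulting dose-response curve. TGI: concentration producing complete growth inhibition.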
Columns and labels:
Experiment in all cases: inhibition of tumour cell growth, NCI panel, 48 h
[1] = test system: NCI-H23 lung
[2] = test system: MDA-MB-435
[3] = test system: K-562 leukemia
[4] = test system: BT-549 breast
[5] = test system: NCI-H226 lung
[6] = test system: HCC-2998 colon
[7] = test system: SNB-75 CNS
[8] = test system: TK-10 renal
[9] = test system: SN12C renal
[10] = test system: RPMI-8226 leukemia
[11] = test system: MDA-MB-231 breast
[12] = test system: NCI-H460 lung
[13] = test system: SNB-19 CNS
[14] = test system: DU-145 prostate
[15] = test system: SK-MEL-28 melanoma
[16] = test system: SW-620 colon
[17] = test system: A549 NSCLC
[18] = test system: MALME-3M melanoma
[19] = test system: T-47D breast
[20] = test system: OVCAR-4 ovarian
[21] = test system: HS 578T breast
[22] = test system: HCT-15 colon
[23] = test system: KM12 colon
[24] = test system: M14 melanoma
[25] = test system: UO-31 renal
[26] = test system: OVCAR-3 ovarian
[27] = test system: MOLT-4 leukemia
[28] = test system: A498 renal
[29] = test system: OVCAR-8 ovarian
[30] = test system: HT29 colon
[31] = test system: UACC-62 melanoma
[32] = test system: U251 CNS
[33] = test system: OVCAR-5 ovarian
[34] = test system: HOP-62 NSCLC
[35] = test system: RXF 393 renal
[36] = test system: SK-MEL-5 melanoma
[37] = test system: HOP-92 NSCLC
[38] = test system: SF-295 CNS
[39] = test system: SK-OV-3 ovarian
[40] = test system: SK-MEL-2 melanoma
[41] = test system: SR leukemia
[42] = test system: IGROV1 ovarian
[43] = test system: UACC-257 melanoma
[44] = test system: PC-3 prostate
[45] = test system: NCI-H522 lung
[46] = test system: EKVX NSCLC
[47] = test system: MDA-N
[48] = test system: NCI/ADR-RES ovarian
[49] = test system: SF-268 CNS
[50] = test system: ACHN renal
[51] = test system: CAKI-1 renal
[52] = test system: CCRF-CEM leukemia
[53] = test system: LOX IMVI melanoma
[54] = test system: 786-0 renal
[55] = test system: COLO 205 colon
[56] = test system: HCT-116 colon
[57] = test system: MCF7 breast
[58] = test system: SF-539 CNS
[59] = test system: HL-60(TB) leukemia

## CCN(CC)CCNC(=O)c1cc2cc(NC(=O)c3cc4cc(NC(=O)c5cc6cc(N)ccc6[nH]5)ccc4[nH]3)ccc2[nH]1
[1]
  TGI: > 100 µM
[2]
  TGI: > 100 µM
[3]
  TGI: > 100 µM
[4]
  TGI: > 100 µM
[5]
  TGI: > 100 µM
[6]
  TGI: > 100 µM
[7]
  TGI: > 100 µM
[8]
  TGI: > 100 µM
[9]
  TGI: > 100 µM
[10]
  TGI: > 100 µM
[11]
  TGI: > 100 µM
[12]
  TGI: > 100 µM
[13]
  TGI: > 100 µM
[14]
  TGI: > 100 µM
[15]
  TGI: > 100 µM
[16]
  TGI: > 100 µM
[17]
  TGI: > 100 µM
[18]
  TGI: > 100 µM
[19]
  TGI: > 100 µM
[20]
  TGI: > 100 µM
[21]
  TGI: > 100 µM
[22]
  TGI: > 100 µM
[23]
  TGI: > 100 µM
[24]
  TGI: > 100 µM
[25]
  TGI: > 100 µM
[26]
  TGI: > 100 µM
[27]
  TGI: > 100 µM
[28]
  TGI: > 100 µM
[29]
  TGI: > 100 µM
[30]
  TGI: > 100 µM
[31]
  TGI: > 100 µM
[32]
  TGI: > 100 µM
[33]
  TGI: > 100 µM
[34]
  TGI: > 100 µM
[35]
  TGI: > 100 µM
[36]
  TGI: > 100 µM
[37]
  TGI: > 100 µM
[38]
  TGI: > 100 µM
[39]
  TGI: > 100 µM
[40]
  TGI: > 100 µM
[41]
  TGI: > 100 µM
[42]
  TGI: > 100 µM
[43]
  TGI: > 100 µM
[44]
  TGI: > 100 µM
[45]
  TGI: > 100 µM
[46]
  TGI: > 100 µM
[47]
  TGI: > 100 µM
[48]
  TGI: > 100 µM
[49]
  TGI: > 100 µM
[50]
  TGI: > 100 µM
[51]
  TGI: > 100 µM
[52]
  TGI: > 100 µM
[53]
  TGI: > 100 µM
[54]
  TGI: > 100 µM
[55]
  TGI: > 100 µM

## O=c1oc2ccccc2c(O)c1/C=N/C(=S)NCCc1ccccc1
[1]
  TGI: > 88 µM
[2]
  TGI: > 75.3 µM
[3]
  TGI: > 100 µM
[56]
  TGI: > 100 µM
[4]
  TGI: > 84.7 µM
[5]
  TGI: > 100 µM
[6]
  TGI: > 100 µM
[57]
  TGI: > 100 µM
[7]
  TGI: > 87.5 µM
[8]
  TGI: > 100 µM
[9]
  TGI: > 100 µM
[10]
  TGI: 89.3 µM
[11]
  TGI: > 100 µM
[12]
  TGI: > 70.3 µM
[13]
  TGI: > 100 µM
[14]
  TGI: > 100 µM
[15]
  TGI: > 100 µM
[16]
  TGI: > 100 µM
[17]
  TGI: > 100 µM
[19]
  TGI: > 100 µM
[20]
  TGI: > 100 µM
[21]
  TGI: > 100 µM
[22]
  TGI: > 100 µM
[23]
  TGI: > 100 µM
[24]
  TGI: > 100 µM
[25]
  TGI: > 74.6 µM
[26]
  TGI: > 100 µM
[27]
  TGI: > 100 µM
[29]
  TGI: > 100 µM
[30]
  TGI: > 100 µM
[31]
  TGI: 99.4 µM
[32]
  TGI: > 100 µM
[33]
  TGI: > 100 µM
[34]
  TGI: > 100 µM
[35]
  TGI: > 100 µM
[36]
  TGI: > 100 µM
[37]
  TGI: > 74.7 µM
[38]
  TGI: > 100 µM
[39]
  TGI: > 63.8 µM
[40]
  TGI: > 85.1 µM
[41]
  TGI: 41.7 µM
[42]
  TGI: > 100 µM
[43]
  TGI: > 100 µM
[44]
  TGI: > 100 µM
[45]
  TGI: 87.4 µM
[46]
  TGI: > 100 µM
[47]
  TGI: > 100 µM
[48]
  TGI: > 100 µM
[49]
  TGI: > 100 µM
[50]
  TGI: > 85.6 µM
[51]
  TGI: > 100 µM
[58]
  TGI: > 71.1 µM
[52]
  TGI: 86.1 µM
[59]
  TGI: 5.38 µM
[53]
  TGI: > 100 µM
[54]
  TGI: > 100 µM
[55]
  TGI: > 100 µM

From PubChem BioAssay (NCI)
